# Entries after “also recorded” stand apart in the source; their conditions may differ. Read-outs that look alike come from different tables or passages of the source. Starred links: 1 amine or outer side, 2 acyl side, 3 side chain; linkers in the order of their positions; H or OH if unused. Positions of bridges follow the written chain, without caps; N, C: chain ends. Non-standard residues stand in square brackets, D forms with d. Residues, ends and D or L forms follow the SMILES beside them. Chains are numbered I, II in the order given. Actinocin(9to1) = Cc1c2oc3c(C)ccc(C(=O)[*:1])c3nc-2c(C(=O)[*:2])c(N)c1=O; NMeV = CN[C@H](C(=O)O)C(C)C; Sar = CNCC(=O)O
# Assays:
# [1] = test system: oligonucleotides containing the screening sequence (SEQ ID NO:601) flanked by a test sequence (SEQ ID NO:605 to SEQ ID NO:613); type: binding, Herpes Simplex Virus
# [2] = test system: 256 different 4 bp sequences flanking the UL9 recognition site; type: binding, Herpes Simplex Virus
# DNA = settings: cited from earlier work; for published binding constant: bulk genomic DNA (average)
compound,measurement,setting,value
"Cn1cc(NC(=O)c2cc(NC(=O)c3cc(NC=O)cn3C)cn2C)cc1C(=O)NCCC(=N)N [distamycin, Distamycin A]",effect on DNA:protein complexes / free probe,[1],"most of the DNA:protein complexes are intact (top band) with free probe appearing in the UL9 polyT and UL9 polyA lanes, and some free probe appearing in the UL9 ATAT lane; also recorded: free probe can be seen in the UL9 polyT and UL9 polyA lanes; also recorded: the DNA:protein in the polyT, UL9 polyA and UL9 ATAT lanes are near completely disrupted while some DNA:protein complexes in the other lanes persist"
same,test sequences at which UL9 binding to the screening sequence is preferentially disrupted,[1],"preferentially disrupts binding to the test sequences UL9 polyT, UL9 polyA and, to a lesser extent, UL9ATAT; also recorded: preferentially disrupts binding to UL9 polyT, UL9 polyA and UL9 ATAT"
same,Ave. rank (actual) of the 18 sequences of the second consensus sequence,[2],29
same,Average rank (actual) of the 16 sequences of the first consensus sequence,[2],17
same,overall sequence preference in the screen of all 256 sequences,[2],preference for binding AT-rich sequences
same,"second consensus sequence, favoured bases and order",[2],A/G/C and G/C/A and G/C and A>G=C and C>A=G and G=C
same,published binding constant,DNA,about 2×10^5 M^−1
same,published binding constant,DNA; listed as dista,200000 M⁻¹
same,KA (binding to DNA),DNA; literature,200000 M⁻¹
same,reported preferred DNA binding sequence,DNA; literature,non-alternating AT-rich sequences
COc1cccc2c1C(=O)c1c(O)c3c(c(O)c1C2=O)C[C@@](O)(C(=O)CO)C[C@@H]3O[C@H]1C[C@H](N)[C@H](O)[C@H](C)O1 [Doxorubicin],effect on DNA:protein complexes,[1],"most DNA:protein complexes are nearly completely disrupted, with UL9 polyT and UL9ATAT showing some DNA still complexed with protein"
same,effect on UL9 binding to the screening sequence,[1],strongly affected; also recorded: more mildly affected; also recorded: effects similar to those observed at 15 μM were also observed
same,test sequences at which UL9 binding to the screening sequence is preferentially disrupted,[1],"preferentially disrupts the binding of UL9 to the oligonucleotides UL9 polyT, UL9 GGGC, oriEco2, and oriEco3"
CS[C@H]1SC[C@H]2C(=O)N(C)[C@@H](C(C)C)C(=O)OC[C@@H](NC(=O)c3cnc4ccccc4n3)C(=O)N[C@@H](C)C(=O)N(C)[C@@H]1C(=O)N(C)[C@@H](C(C)C)C(=O)OC[C@@H](NC(=O)c1cnc3ccccc3n1)C(=O)N[C@@H](C)C(=O)N2C [echinomycin],reported preferred DNA binding sequence,DNA; literature,[(A/T)CGT]/[ACG(A/T)]
calicheamicin,reported preferred DNA binding sequence,DNA; literature,TCCT/AGGA
"Cc1c2oc3c(C)ccc(C(=O)N[C@@H]4C(=O)N[C@H](C(C)C)C(=O)N5CCC[C@H]5C(=O)N(C)CC(=O)N(C)[C@@H](C(C)C)C(=O)O[C@@H]4C)c3nc-2c(C(=O)N[C@@H]2C(=O)N[C@H](C(C)C)C(=O)N3CCC[C@H]3C(=O)N(C)CC(=O)N(C)[C@@H](C(C)C)C(=O)O[C@@H]2C)c(N)c1=O [actinomycin D, Actinomycin D] (I: T[dV]P[Sar][NMeV] / II: T[dV]P[Sar][NMeV]; ester I:1-I:C, II:1-II:C; linker I:N-II:N via Actinocin(9to1))",test sequences at which UL9 binding to the screening sequence is preferentially disrupted,[1],preferentially disrupts the binding of UL9-COOH to the oligonucleotides UL9 CCCG (SEQ ID NO:605) and UL9 GGGC (SEQ ID NO:606); also recorded: preferentially disrupts the binding of UL9 to the oligonucleotides UL9 CCCG and UL9 GGGC
same,dinucleotide preference,[2],"GC, particularly in the N1N2 position"
same,mean r % score for all oligonucleotides,[2],67%
same,overall sequence preference in the screen of all 256 sequences,[2],preference for binding GC-rich sequences; also recorded: prefers GC-rich sequences over AT-rich sequences
same,position effect of a single base in the test site,[2],a single base in any particular position has little impact on the binding
same,sequence binding preference,[2],a preference for binding GC-rich oligonucleotides has been observed; also recorded: this binding preference is even more apparent
same,reported preferred DNA binding sequence,DNA; literature,dGdC

# — patent US6384208B1, “Sequence directed DNA binding molecules compositions and methods” (Genelabs Technologies, Inc., priority 1991, dated 2002)
